From US20090221819A1, “FLUORESCENT COMPOUNDS AND USE OF SAID COMPOUNDS IN MULTIPHOTON METHODS OR DEVICES” (priority 2005, published 2009) come the findings set out here.

Type in all cases: physicochemical
Data set [1] is described as follows: absorption and photoluminescence characteristics (absorption and fluorescence emission spectra, quantum efficiency, lifetime). Particulars: in toluene; for Φ, fluorescence quantum efficiency: determined with respect to fluorescein in NaOH 0.1N. As for the experimental part:
The absorption and photoluminescence characteristics of the 4 compounds of which the syntheses are described above were evaluated.
λabs represents the maximum absorption wavelength of the compound,
λem represents its maximum emission wavelength,
(§1) Φ represents its fluorescence quantum efficiency, determined with respect to the fluorescein in NaOH 0.1N, σ2 represents its effective TPA cross-section (in GM, with 1 GM=10^−50 cm^4.s.photon^−1); the TPEF measurements were performed with a titanium-sapphire laser in locked mode generating pulses of ˜80 fs at 80 MHz, by calibrating with fluorescein),
τ represents its fluorescence lifetime (also called the fluorescent decrease time).

Data set [2] is described as follows: two-photon absorption (TPA) cross-sections determined by two-photon excitation fluorescence (TPEF). The conditions noted are these: for σ2, effective TPA cross-section at 700 nm / σ2, effective TPA cross-section at 990 nm / σ2, effective TPA cross-section at 750 nm: in toluene; for σ2, effective TPA cross-section at 700 nm / σ2, effective TPA cross-section at 990 nm: 10^−4 M. As for the experimental part: The TPA spectra of the […] synthesized compounds (LP42, LP52, CL64, CL108, MC237 and MC263) as well as the reference boron dipyrromethene CL76 were also determined in the near-infrared ([…]) by studying their two-photon excitation fluorescence (TPEF), and are shown in FIG. 9.
The measurements were taken in toluene solutions of 10^−4 M, using a titanium-sapphire laser in locked mode generating pulses of ˜80 fs at 80 MHz.
The quadratic dependence of the fluorescence intensity with the excitation intensity was verified for each point of measurement. The calibration is done with respect to the effective TPEF cross-sections of the fluorescein in water (pH=11), which were determined absolutely in the former literature in the range of 690-1000 nm.
This method provides access to the effective TPEF cross-sections (σ2φ), from which the corresponding effective TPA cross-sections (σ2) are deduced. The data in the literature for compound PM556 are added for comparison.
as §1

The nature of a further data set: water solubility.

Consider `CCC1=C(C)C2=C(c3ccc(C#Cc4ccc(N(c5ccc(C#Cc6ccc(C7=C8C(C)=C(CC)C(C)=[N+]8[B-](F)(F)n8c(C)c(CC)c(C)c87)cc6)cc5)c5ccc(C#Cc6ccc(C7=C8C(C)=C(CC)C(C)=[N+]8[B-](F)(F)n8c(C)c(CC)c(C)c87)cc6)cc5)cc4)cc3)c3c(C)c(CC)c(C)n3[B-](F)(F)[N+]2=C1C` [CL64], for which, in data set [1], the “ε, molar extinction coefficient” value was found to be 221700 M⁻¹ cm⁻¹; the “λabs, maximum absorption wavelength” value stood at 528 nm; the “λem, maximum emission wavelength” value was determined as 543 nm; the “τ, fluorescence lifetime” value was determined as 4.02 ns. The “Φ, fluorescence quantum efficiency” value in data set [1] is 0.93. Further, the “effective TPA cross-section relative to model CL76 at 700 nm” value in data set [2] (ratio to CL76) was 9 times. In addition, in data set [2], the “σ2, effective TPA cross-section at 700 nm” value was 190 GM and the “σ2, effective TPA cross-section at 990 nm” value is recorded as 45 GM.
`CCC1=C(C)C2=C(c3ccc(-c4ccc(C5=C6C(C)=C(CC)C(C)=[N+]6[B-](F)(F)n6c(C)c(CC)c(C)c65)cc4)cc3)c3c(C)c(CC)c(C)n3[B-](F)(F)[N+]2=C1C` [LP42, tetrafluoro[1-[2,2′-[(1,1′-biphenyl)-4,4′-diylbis[[4-ethyl-3,5-dimethyl-2H-pyrrol-2-ylidene-]methylene]]bis[4-ethyl-3,5-dimethyl-1H-pyrrolato]]]diboron]: in data set [1], the “ε, molar extinction coefficient” value came to 161900 M⁻¹ cm⁻¹; the “λabs, maximum absorption wavelength” value is listed as 527 nm; the “λem, maximum emission wavelength” value is listed as 542 nm; the “τ, fluorescence lifetime” value was 4.76 ns. In data set [1], the “Φ, fluorescence quantum efficiency” value amounted to 0.72. In data set [2] (ratio to CL76), the “effective TPA cross-section relative to model CL76 at 700 nm” value turned out to be 3 times and the “effective TPA cross-section relative to model CL76 at 990 nm” value is on record as 2.5 times. Moreover, in data set [2], the “σ2, effective TPA cross-section at 700 nm” value is on record as 57 GM and the “σ2, effective TPA cross-section at 990 nm” value is on record as 48 GM.
For `CCC1=C(C)C2=C(c3ccc(-c4cc(-c5ccc(C6=C7C(C)=C(CC)C(C)=[N+]7[B-](F)(F)n7c(C)c(CC)c(C)c76)cc5)cc(-c5ccc(C6=C7C(C)=C(CC)C(C)=[N+]7[B-](F)(F)n7c(C)c(CC)c(C)c76)cc5)c4)cc3)c3c(C)c(CC)c(C)n3[B-](F)(F)[N+]2=C1C` [LP52, hexafluoro[μ3-[2,2′2″-[1,3,5-benzenetriyltris[4,1-phenylene[[4-ethyl-3,5-dimethyl-2H-pyrrol-2-ylidene]methylene]]tris[4-ethyl-3,5-dimethyl-1H-pyrrolato]]]]triboron], in data set [1], the “ε, molar extinction coefficient” value is 244300 M⁻¹ cm⁻¹; the “λabs, maximum absorption wavelength” value worked out at 527 nm; the “λem, maximum emission wavelength” value worked out at 542 nm; the “τ, fluorescence lifetime” value turned out to be 4.78 ns. The “Φ, fluorescence quantum efficiency” value in data set [1] amounted to 0.69. For the same molecule, in data set [2] (ratio to CL76), the “effective TPA cross-section relative to model CL76 at 700 nm” value is reported as 4 times and the “effective TPA cross-section relative to model CL76 at 990 nm” value amounted to 3.75 times. In data set [2], the “σ2, effective TPA cross-section at 700 nm” value is reported as 82 GM and the “σ2, effective TPA cross-section at 990 nm” value is 75 GM.
On to `CCC1=C(C)C2=C(c3ccc(C#Cc4ccc(-c5cc(-c6ccc(C#Cc7ccc(C8=C9C(C)=C(CC)C(C)=[N+]9[B-](F)(F)n9c(C)c(CC)c(C)c98)cc7)cc6)cc(-c6ccc(C#Cc7ccc(C8=C9C(C)=C(CC)C(C)=[N+]9[B-](F)(F)n9c(C)c(CC)c(C)c98)cc7)cc6)c5)cc4)cc3)c3c(C)c(CC)c(C)n3[B-](F)(F)[N+]2=C1C` [MC237], for which, in data set [1], the “ε, molar extinction coefficient” value amounted to 216400 M⁻¹ cm⁻¹; the “λabs, maximum absorption wavelength” value was determined as 528 nm; the “λem, maximum emission wavelength” value came to 544 nm; the “τ, fluorescence lifetime” value is given as 3.95 ns. Also, the “Φ, fluorescence quantum efficiency” value in data set [1] is listed as 0.89. Also, the “effective TPA cross-section relative to model CL76 at 700 nm” value in data set [2] (ratio to CL76) came to 4 times. Further, in data set [2], the “σ2, effective TPA cross-section at 700 nm” value is on record as 93 GM and the “σ2, effective TPA cross-section at 990 nm” value was found to be 34 GM.
As for `CCC1=C(C)C2=C(c3ccc(-c4cn(-c5ccc(C#Cc6ccc(N(c7ccc(C#Cc8ccc(-n9cc(-c%10ccc(C%11=C%12C(C)=C(CC)C(C)=[N+]%12[B-](F)(F)n%12c(C)c(CC)c(C)c%12%11)cc%10)nn9)cc8)cc7)c7ccc(C#Cc8ccc(-n9cc(-c%10ccc(C%11=C%12C(C)=C(CC)C(C)=[N+]%12[B-](F)(F)n%12c(C)c(CC)c(C)c%12%11)cc%10)nn9)cc8)cc7)cc6)cc5)nn4)cc3)c3c(C)c(CC)c(C)n3[B-](F)(F)[N+]2=C1C` [MC263], in data set [1], the “ε, molar extinction coefficient” value came to 211100 M⁻¹ cm⁻¹; the “λabs, maximum absorption wavelength” value is 528 nm; the “λem, maximum emission wavelength” value was 542 nm; the “τ, fluorescence lifetime” value amounted to 4.36 ns. Also, the “Φ, fluorescence quantum efficiency” value in data set [1] stood at 1. Further, the “effective TPA cross-section relative to model CL76 at 750 nm” value in data set [2] (at 750 nm, ratio to CL76) is given as 18. In addition, in data set [2], the “σ2, effective TPA cross-section at 700 nm” value is reported as 185 GM and the “σ2, effective TPA cross-section at 990 nm” value is 40 GM. Also, the “σ2, effective TPA cross-section at 750 nm” value in data set [2] (at 750 nm) came to 270 GM.
Regarding `CC1=C(S(=O)(=O)[O-])C(C)=[N+]2C1=C(c1ccc(C#Cc3ccc(-c4cc(-c5ccc(C#Cc6ccc(C7=C8C(C)=C(S(=O)(=O)[O-])C(C)=[N+]8[B-](F)(F)n8c(C)c(S(=O)(=O)[O-])c(C)c87)cc6)cc5)cc(-c5ccc(C#Cc6ccc(C7=C8C(C)=C(S(=O)(=O)[O-])C(C)=[N+]8[B-](F)(F)n8c(C)c(S(=O)(=O)[O-])c(C)c87)cc6)cc5)c4)cc3)cc1)c1c(C)c(S(=O)(=O)[O-])c(C)n1[B-]2(F)F.[Na+].[Na+].[Na+].[Na+].[Na+].[Na+]` [MC297], the water solubility result in “water solubility” is listed as “perfectly water-soluble”.
For “|4-ethyl-2-|(4-ethyl-3,5-dimethyl-2H-pyrrol-2-ylidene)phenyl methyl|-3,5-dimethyl-1H-pyrrolato|difluoroboron [CL76, reference compound]”, in data set [1], the “ε, molar extinction coefficient” value amounted to 76180 M⁻¹ cm⁻¹; the “λabs, maximum absorption wavelength” value stood at 527 nm; the “λem, maximum emission wavelength” value turned out to be 539 nm; the “Φ, fluorescence quantum efficiency” value turned out to be 0.75. Besides, in data set [2], the “σ2, effective TPA cross-section at 700 nm” value is recorded as 20 GM and the “σ2, effective TPA cross-section at 990 nm” value came out at 20 GM. For the same molecule, in data set [2] (at 750 nm), the “σ2, effective TPA cross-section at 750 nm” value is reported as 15 GM.
